Measured values published in ChEMBL document CHEMBL4673196, “Synthesis and sigma receptor affinity of spiro[[2]benzopyran-1,1-cyclohexanes] with an exocyclic amino moiety in the 3-position” (RSC Med Chem, 2021).
Active and inactive are the calls of the source. The rule behind the calls is not given here.

Key:
[1] = biological target: T1, Sigma intracellular receptor 2 (Rattus norvegicus, UniProt Q5U3Y7); experiment: Displacement of [3H]-DTG from Sprague-Dawley rat liver sigma 2 receptor incubated for 120 mins by liquid scintillation counting method; assay type: tissue-based
T1 sequence (Q5U3Y7 whole entry): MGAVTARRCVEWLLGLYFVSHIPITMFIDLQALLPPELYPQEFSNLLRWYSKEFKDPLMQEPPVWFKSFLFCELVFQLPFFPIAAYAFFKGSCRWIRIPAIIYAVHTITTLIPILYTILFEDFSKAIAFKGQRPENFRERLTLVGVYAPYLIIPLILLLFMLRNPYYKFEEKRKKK

[2] = biological target: Sigma non-opioid intracellular receptor 1 (Cavia porcellus, UniProt Q60492); experiment: Displacement of [3H]-pentazocine from guinea pig brain sigma 1 receptor incubated for 120 mins by liquid scintillation counting method; assay type: tissue-based
Sigma non-opioid intracellular receptor 1, sequence (Q60492 whole entry): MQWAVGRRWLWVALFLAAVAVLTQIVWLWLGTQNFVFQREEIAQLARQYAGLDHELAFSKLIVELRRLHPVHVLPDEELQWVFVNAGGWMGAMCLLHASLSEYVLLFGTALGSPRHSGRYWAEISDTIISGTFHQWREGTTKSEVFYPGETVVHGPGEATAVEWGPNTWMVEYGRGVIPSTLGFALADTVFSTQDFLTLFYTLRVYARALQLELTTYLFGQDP

[3] = biological target: T2, Sigma intracellular receptor 2 (Rattus norvegicus) (UniProt Q5U3Y7); experiment: Displacement of [3H]-DTG from Sprague-Dawley rat liver sigma 2 receptor at 1 uM incubated for 120 mins by liquid scintillation counting method relative to control; assay type: tissue-based
T2 sequence (whole entry): T1 sequence (Q5U3Y7 whole entry)

[4] = biological target: T3, Delta-type opioid receptor (Homo sapiens, UniProt P41143); experiment: Binding affinity to DOR (unknown origin)
T3 sequence (P41143 whole entry): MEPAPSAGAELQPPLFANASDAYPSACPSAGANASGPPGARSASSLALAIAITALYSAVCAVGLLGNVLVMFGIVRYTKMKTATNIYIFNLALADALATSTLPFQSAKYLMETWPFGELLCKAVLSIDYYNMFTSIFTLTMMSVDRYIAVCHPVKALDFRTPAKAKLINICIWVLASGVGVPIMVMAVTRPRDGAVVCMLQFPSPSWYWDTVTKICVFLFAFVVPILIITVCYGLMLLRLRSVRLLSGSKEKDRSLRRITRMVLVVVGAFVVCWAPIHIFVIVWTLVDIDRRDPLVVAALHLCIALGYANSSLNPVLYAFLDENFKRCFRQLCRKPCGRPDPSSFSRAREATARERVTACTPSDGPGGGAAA

[5] = biological target: T4, Kappa-type opioid receptor (Homo sapiens, UniProt P41145); experiment: Binding affinity to KOR (unknown origin)
T4 sequence (P41145 whole entry): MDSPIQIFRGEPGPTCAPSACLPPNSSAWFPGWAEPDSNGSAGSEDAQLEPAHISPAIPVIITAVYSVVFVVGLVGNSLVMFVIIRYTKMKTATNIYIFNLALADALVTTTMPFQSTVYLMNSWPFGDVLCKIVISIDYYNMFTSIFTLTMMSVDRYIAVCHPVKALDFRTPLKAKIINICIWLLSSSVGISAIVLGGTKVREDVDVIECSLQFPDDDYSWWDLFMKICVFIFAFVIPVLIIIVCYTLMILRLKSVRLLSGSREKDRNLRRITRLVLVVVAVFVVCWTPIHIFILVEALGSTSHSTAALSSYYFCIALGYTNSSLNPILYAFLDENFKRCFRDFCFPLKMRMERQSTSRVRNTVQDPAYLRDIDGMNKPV

Mu-type opioid receptor [6] = biological target: T5, Mu-type opioid receptor (Homo sapiens, UniProt P35372); experiment: Binding affinity to MOR (unknown origin)
T5 sequence (P35372 whole entry): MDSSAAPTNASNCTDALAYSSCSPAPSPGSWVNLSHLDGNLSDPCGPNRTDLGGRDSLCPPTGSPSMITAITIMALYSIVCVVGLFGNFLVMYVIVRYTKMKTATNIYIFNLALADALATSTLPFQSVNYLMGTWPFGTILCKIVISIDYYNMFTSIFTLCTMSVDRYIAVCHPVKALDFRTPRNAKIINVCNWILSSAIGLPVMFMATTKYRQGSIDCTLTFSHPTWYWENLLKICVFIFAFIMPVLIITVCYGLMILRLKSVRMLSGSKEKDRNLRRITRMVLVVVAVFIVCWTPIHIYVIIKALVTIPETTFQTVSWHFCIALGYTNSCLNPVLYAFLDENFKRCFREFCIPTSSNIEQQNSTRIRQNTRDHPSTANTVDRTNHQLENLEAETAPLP

Mu-type opioid receptor [7] = biological target: T5, Mu-type opioid receptor; experiment: Binding affinity to MOR (unknown origin) at <= 1 uM; conditions: dose microM <=1
[8] = biological target: T4, Kappa-type opioid receptor; experiment: Binding affinity to KOR (unknown origin) at <= 1 uM; conditions: dose microM <=1
[9] = biological target: T3, Delta-type opioid receptor; experiment: Binding affinity to DOR (unknown origin) at <= 1 uM; conditions: dose microM <=1

Compound	Ki [1] [nM]	Ki [2] [nM]	inhibition [3] [%]	Ki [4] [nM]	Ki [5] [nM]	Ki (Mu-type opioid receptor [6]) [nM]	Activity (Mu-type opioid receptor [7])	Activity [8]	Activity [9]
c1ccc(CN[C@H]2CCC[C@]3(C2)OCCc2ccccc23)cc1 (relative stereo)	340	95	–	–	–	–	–	–	–
CN(Cc1ccccc1)[C@H]1CCC[C@]2(C1)OCCc1ccccc12 (relative stereo)	–	278	24	–	–	–	–	–	–
c1ccc2c(c1)CCO[C@@]21CCC[C@H](NCC2CCCCC2)C1 (relative stereo)	60	5.4	–	150	407	696	–	–	–
CN(CC1CCCCC1)[C@H]1CCC[C@]2(C1)OCCc1ccccc12 (relative stereo)	–	15	34	–	–	–	inactive	inactive	inactive
